AC50, IC50 and GI50 data for 16 compounds are collected here from patent US20260285853A1, “COMPOUNDS AND METHODS FOR MODULATING SPLICING” (REMIX THERAPEUTICS INC., priority 2023, published 2026).

Holding throughout (format): cell-based
For test [1], the system named is HTT mRNA. The test is described as follows: Splicing RT-qPCR assay (THP), Table 2A. To be noted: Table 2A (THP); for AC50: AJ mRNA increase, read-out: HTT AJ (increase in alternative junction mRNA, AC50); for IC50: CJ mRNA decrease, read-out: HTT CJ (decrease in canonical junction mRNA, IC50).
The subject of test [2] is MYB mRNA. The test is described as follows: Splicing RT-qPCR assay (THP), Table 2A. To be noted: Table 2A (THP); for AC50: AJ mRNA increase, read-out: MYB AJ (increase in alternative junction mRNA, AC50); for IC50: CJ mRNA decrease, read-out: MYB CJ (decrease in canonical junction mRNA, IC50). For orientation: Real-time PCR tracks product formation cycle by cycle.
The subject of test [3] is MYB mRNA. Kind of test: Gene panel canonical junction qPCR assay, decrease in CJ mRNA, Table 3. To be noted: decrease in canonical junction (CJ) mRNA, gene panel qPCR, Table 3. The gist of the method: (§1)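 IC50 denotes the concentration giving 50% decrease in canonical-junction mRNA, fitted by 4-parameter logistic to percentage response derived from ΔΔCt versus housekeeping gene and DMSO control. Cells (A673 or K562) exposed 24 h to 11-point 3-fold serial dilutions from 10 uM top, DMSO ≤0.25%; junction-spanning primer/probe qPCR.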

The test system of test [4] is HTT mRNA. The description is as above. To be noted: decrease in canonical junction (CJ) mRNA, gene panel qPCR, Table 3. The gist of the method:
as §1

For test [5], the system named is SH-SY5Y (human neuroblastoma) cells. The test is described as follows: Cell viability, Cell Titer Glo 2.0 assay. To be noted: read-out: Viability SHSY5Y.3 GI50. The gist of the method:
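Viability was read by CellTiter-Glo 2.0 luminescence after a 72-hour compound exposure at 37° C. under 5% CO2. Cells were in IMDM plus 10% FBS containing 0.1% DMSO, and medium-only wells gave the blank.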
(In general: Cellular ATP, detected with luciferase, serves as a proxy for viable cell number.)

For `COc1cc2nn(C)cc2cc1NC(=O)c1c(C2CC2)cc(N2CCC(NC3CC3)CC2)c2cn(C)nc12` [Compound 466, 6-cyclopropyl-4-[4-(cyclopropylamino)-1-piperidyl]-N-(6-methoxy-2-methyl-indazol-5-yl)-2-methyl-indazole-7-carboxamide], the AC50 in test [1] and in test [2] was more than 10 µM each time. For the same compound, the IC50 in test [1], in test [2], in test [3] and in test [4] was more than 10 µM throughout. The GI50 (in general, the concentration at which growth is held to half of that of the control) in test [5] was in the range of 1 to 10 µM.
In the case of `Cn1cc2cc(NC(=O)c3c(F)cc(N4CCC(NC5CC5)CC4)c4cn(C)nc34)c(OC3CCOC3)cc2n1` (stereo not shown) [Compound 467, 4-[4-(cyclopropyl-amino)-1-piperidyl]-6-fluoro-2-methyl-N-(2-methyl-6-tetrahydrofuran-3-yloxy-indazol-5-yl)indazole-7-carboxamide], the results for the AC50 in test [1] and in test [2] were 0.1 to 1 µM and less than 0.1 µM, respectively. The concentration for half-maximal inhibition (IC50) (commonly the concentration that gives 50% inhibition) in test [1] is 0.1 to 1 µM; in test [2] it was less than 0.1 µM; in test [3], less than 0.1 µM; in test [4], 0.1 to 1 µM. In addition, in test [5], the GI50 lay in the range of 0.1 to 1 µM.
Regarding `CCNC1CCN(c2cc(F)c(C(=O)Nc3cn4cc(C)nc(C)c4c3F)c3nn(C)cc23)CC1` [Compound 468, 4-[4-(ethylamino)-1-piperidyl]-6-fluoro-N-(8-fluoro-1,3-dimethyl-pyrrolo[1,2-a]pyrazin-7-yl)-2-methyl-indazole-7-carboxamide], the AC50 (commonly the concentration giving half of the maximal activity seen) in test [1] is more than 10 µM; in test [2], less than 0.1 µM. Also, the IC50 was more than 10 µM in test [1], less than 0.1 µM in test [2], less than 0.1 µM in test [3] and more than 10 µM in test [4]. Also, the GI50 in test [5] lay within 1 to 10 µM.
Turning to `Cc1cc2cc(NC(=O)c3ccc(N4CCC(NC5CC5)CC4)c4cn(C)nc34)n(C)c2c(C)n1` [Compound 469, 4-[4-(cyclopropyl-amino)-1-piperidyl]-2-methyl-N-(1,5,7-trimethyl-pyrrolo[2,3-c]-pyridin-2-yl)indazole-7-carboxamide], the AC50 in test [1] and in test [2] was 1 to 10 µM in each case. In addition, the IC50 in test [1], in test [2], in test [3] and in test [4] was 1 to 10 µM in each case. For the same compound, the GI50 in test [5] lay within 0.1 to 1 µM.
In the case of `Cc1cn2cc(NC(=O)c3c(F)cc(N4CC5(CNC5)C4)c4cn(C)nc34)nc2c(C)n1` [Compound 470, 4-(2,6-diazaspiro[3.3]heptan-2-yl)-N-(6,8-dimethyl-imidazo-[1,2-a]-pyrazin-2-yl)-6-fluoro-2-methyl-indazole-7-carboxamide], the AC50 in test [1] and in test [2] was 0.1 to 1 µM in each case. The IC50 in test [1], in test [2], in test [3] and in test [4] was 0.1 to 1 µM each time. The GI50 in test [5] was in the range of 0.1 to 1 µM.
Turning to `CCNCC1CCN(c2cc(F)c(C(=O)Nc3cn4cc(C)nc(C)c4n3)c3nn(C)cc23)C1` (stereo not shown) [Compound 471, N-(6,8-dimethylimidazo-[1,2-a]-pyrazin-2-yl)-4-(3-[(ethylamino)methyl]-pyrrolidin-1-yl)-6-fluoro-2-methyl-indazole-7-carboxamide], the AC50 in test [1] was more than 10 µM; in test [2] it was 0.1 to 1 µM. Moreover, the IC50 is more than 10 µM in test [1], 0.1 to 1 µM in test [2], 0.1 to 1 µM in test [3] and more than 10 µM in test [4]. The GI50 in test [5] was in the range of 1 to 10 µM.
For `COc1cc2nn(C)cc2cc1NC(=O)c1c(C)cc(N2CCC(NC3CC3)CC2)c2cn(C)nc12` [Compound 472, 4-[4-(cyclopropylamino)-1-piperidyl]-N-(6-methoxy-2-methyl-indazol-5-yl)-2,6-dimethylindazole-7-carboxamide], the figures for the AC50 in test [1] and in test [2] were more than 10 µM and 1 to 10 µM, respectively. The IC50 in test [1], in test [2], in test [3] and in test [4] was more than 10 µM in each case. In test [5], the GI50 lay within 1 to 10 µM.
On to `Cc1cn2cc(NC(=O)c3c(C)cc(N4CCC(NC5CC5)CC4)c4cn(C)nc34)nc2c(C)n1` [Compound 473, 4-[4-(cyclopropylamino)-1-piperidyl]-N-(6,8-dimethylimidazo[1,2-a]pyrazin-2-yl)-2,6-dimethyl-indazole-7-carboxamide], for which the AC50 in test [1] and in test [2] was more than 10 µM throughout. Also, the IC50 in test [1], in test [2], in test [3] and in test [4] was more than 10 µM each time. Besides, the GI50 in test [5] was more than 10 µM.
Consider `Cc1cn2cc(NC(=O)c3c(C4CC4)cc(N4CCC(NC5CC5)CC4)c4cn(C)nc34)nc2c(C)n1` [Compound 474, 6-cyclopropyl-4-[4-(cyclopropylamino)-1-piperidyl]-N-(6,8-dimethyl-imidazo[1,2-a]-pyrazin-2-yl)-2-methyl-indazole-7-carboxamide], for which the AC50 in test [1] and in test [2] was more than 10 µM in each case. The IC50 in test [1], in test [2], in test [3] and in test [4] was more than 10 µM throughout. Besides, in test [5], the concentration for 50% growth inhibition (GI50) is 1 to 10 µM.
In the case of `COc1cn2nc(C)cc2cc1NC(=O)c1ccc(N2CCC(NC3CC3)CC2)c2cn(C)nc12` [Compound 475, 4-[4-(cyclopropylamino)-1-piperidyl]-N-(6-methoxy-2-methyl-pyrazolo[1,5-a]pyridin-5-yl)-2-methyl-indazole-7-carboxamide], the AC50 in test [1] is more than 10 µM; in test [2], 0.1 to 1 µM. Also, the IC50 in test [1] was more than 10 µM; in test [2], 0.1 to 1 µM; in test [3], 0.1 to 1 µM; in test [4], more than 10 µM. In test [5], the GI50 lay in the range of 1 to 10 µM.
Take `Cn1cc2cc(NC(=O)c3ccc(N4CCC(NC5CC5)CC4)c4cn(C)nc34)c(C(F)(F)F)cc2n1` [Compound 476, 4-[4-(cyclopropyl-amino)-1-piperidyl]-2-methyl-N-[2-methyl-6-(trifluoromethyl)-indazol-5-yl]indazole-7-carboxamide]: the AC50 is more than 10 µM in test [1] and 1 to 10 µM in test [2]. The IC50 in test [1] was more than 10 µM; in test [2], 1 to 10 µM; in test [3], 1 to 10 µM; in test [4], more than 10 µM. The GI50 in test [5] was more than 10 µM.
As to `COc1cc2nn(C)cc2cc1NC(=O)c1ccc(N2CCC(NC3CC3)CC2)c2c(F)n(C)nc12` [Compound 477], the AC50 in test [1] and in test [2] was 0.1 to 1 µM throughout. For the same compound, the IC50 in test [1], in test [2], in test [3] and in test [4] was 0.1 to 1 µM throughout. For the same compound, the GI50 in test [5] fell in the range of 0.1 to 1 µM.
`Cc1cn2cc(NC(=O)c3ccc(N4CCC(NC5CC5)CC4)c4cn(C)nc34)c(F)c2c(C)n1` [Compound 478, 4-[4-(cyclopropyl-amino)-1-piperidyl]-N-(8-fluoro-1,3-dimethyl-pyrrolo[1,2-a]-pyrazin-7-yl)-2-methyl-indazole-7-carboxamide]: the AC50 in test [1] and in test [2] was more than 10 µM each time. Also, the IC50 in test [1], in test [2], in test [3] and in test [4] was more than 10 µM each time. In addition, the GI50 in test [5] was 1 to 10 µM.
As to `Cc1cn2cc(NC(=O)c3ccc(N4CCC(NC5CC5)CC4)c4cn(C)nc34)nc2c(Cl)n1` [Compound 479, N-(8-chloro-6-methyl-imidazo[1,2-a]-pyrazin-2-yl)-4-[4-(cyclopropylamino)-1-piperidyl]-2-methyl-indazole-7-carboxamide], the AC50 is more than 10 µM in test [1] and 0.1 to 1 µM in test [2]. Further, the IC50 in test [1] is more than 10 µM; in test [2], 0.1 to 1 µM; in test [3], 0.1 to 1 µM; in test [4], more than 10 µM. The GI50 in test [5] lay within 1 to 10 µM.
For `Cn1cc2c(N3CCC(NC4CC4)CC3)cc(F)c(C(=O)Nc3ccc4c(c3)COB4O)c2n1` [Compound 481, 4-(4-(cyclopropyl-amino)piperidin-1-yl)-6-fluoro-N-(1-hydroxy-1,3-dihydrobenzo[c][1,2]-oxaborol-5-y1)-2-methyl-2H-indazole-7-carboxamide 2,2,2-trifluoroacetate], the results for the AC50 in test [1] and in test [2] were more than 10 µM and 1 to 10 µM, respectively. For the same compound, the IC50 in test [1], in test [2], in test [3] and in test [4] was more than 10 µM in each case. Moreover, in test [5], the GI50 lay within 1 to 10 µM.
As for `Cn1cc2c(N3CCC(NC4CC4)CC3)cc(F)c(C(=O)Nc3ccc4c(c3)B(O)OC4)c2n1` [Compound 482, 4-[4-(cyclopropyl-amino)-1-piperidy1]-6-fluoro-N-(1-hydroxy-3H-2,1-benzoxaborol-6-y1)-2-methyl-indazole-7-carboxamide 2,2,2-trifluoroacetate], the AC50 in test [1] and in test [2] was more than 10 µM in each case. For the same compound, the IC50 in test [1], in test [2], in test [3] and in test [4] was more than 10 µM in each case. In addition, the GI50 in test [5] was in the range of 1 to 10 µM.
